Laboratory results published in US7320992B2, “Substituted 2,3-dihydro-1h-isoindol-1-one derivatives and methods of use” (Amgen Inc., priority 2003, dated 2008).

system: VEGF-stimulated HUVEC proliferation (Human Umbilical Vein Endothelial cells); test: HUVEC Proliferation Assay; assay type: cell-based; settings: 72 h incubation, CyQuant readout, read-out: inhibited VEGF-stimulated HUVEC proliferation at a level (IC50)
Procedure: Human Umbilical Vein Endothelial cells are purchased from Clonetics, Inc., as cryopreserved cells harvested from a pool of donors. These cells, at passage 1, are thawed and expanded in EBM-2 complete medium, until passage 2 or 3. The cells are trypsinized, washed in DMEM+10% FBS+antibiotics, and spun at 1000 rpm for 10 min. Prior to centrifugation of the cells, a small amount is collected for a cell count. After centrifugation, the medium is discarded, and the cells are resuspended in the appropriate volume of DMEM+10% FBS+antibiotics to achieve a concentration of 3×10^5 cells/mL. Another cell count is performed to confirm the cell concentration. The cells are diluted to 3×10^4 cells/mL in DMEM+10% FBS+antibiotics, and 100 μL of cells are added to a 96-well plate. The cells are incubated at 37° C. for 22 h.
Prior to the completion of the incubation period, compound dilutions are prepared. Five-point, five-fold serial dilutions are prepared in DMSO, at concentrations 400-fold greater than the final concentrations desired. 2.5 μL of each compound dilution are diluted further in a total of 1 mL DMEM+10% FBS+antibiotics (400× dilution). Medium containing 0.25% DMSO is also prepared for the 0 μM compound sample. At the 22 h timepoint, the medium is removed from the cells, and 100 μL of each compound dilution is added. The cells are incubated at 37° C. for 2-3 h.
During the compound pre-incubation period, the growth factors are diluted to the appropriate concentrations. Solutions of DMEM+10% FBS+antibiotics, containing either VEGF or bFGF at the following concentrations: 50, 10, 2, 0.4, 0.08, and 0 ng/mL are prepared. For the compound-treated cells, solutions of VEGF at 550 ng/mL or bFGF at 220 ng/mL for 50 ng/mL or 20 ng/mL final concentrations, respectively, are prepared since 10 μL of each will be added to the cells (110 μL final volume). At the appropriate time after adding the compounds, the growth factors are added. VEGF is added to one set of plates, while bFGF is added to another set of plates. For the growth factor control curves, the media on wells B4-G6 of plates 1 and 2 are replaced with media containing VEGF or bFGF at the varying concentrations (50-0 ng/mL). The cells are incubated at 37° C. for an additional 72 h.
At the completion of the 72 h incubation period, the medium is removed, and the cells are washed twice with PBS. After the second wash with PBS, the plates are tapped gently to remove excess PBS, and the cells are placed at −70° C. for at least 30 min. The cells are thawed and analyzed using the CyQuant fluorescent dye (Molecular Probes C-7026), following the manufacturer's recommendations. The plates are read on a Victor/Wallac 1420 workstation at 485 nm/530 nm (excitation/emission). Raw data are collected and analyzed using a 4-parameter fit equation in XLFit. IC50 values are then determined.

| Structure (SMILES) | IC50 [nM] |
| --- | --- |
| CC(C)(C)c1ccc(N2Cc3cccc(NCc4ccncc4)c3C2=O)cc1 [Example 1, 2-(4-(1,1-Dimethylethyl)phenyl)-7-((4-pyridinylmethyl)amino)-2,3-dihydro-1H-isoindol-1-one] | < 500 |
| CC(=O)N1CC(C)(C)c2ccc(N3Cc4cccc(NCc5ccncc5)c4C3=O)cc21 [Example 16, 2-(1-acetyl-3,3-dimethyl-2,3-dihydro-1H-indol-6-yl)-7-[(pyridin-4-ylmethyl)-amino]-2,3-dihydro-isoindol-1-one] | < 500 |
| CC1(C)CNc2cc(N3Cc4cccc(NCc5ccncc5)c4C3=O)ccc21 [Example 17] | < 500 |
| CC1(C)CNCc2cc(N3Cc4cccc(NCc5ccncc5)c4C3=O)ccc21 [Example 20] | < 500 |
| CC(C)(C)c1ccc(N2Cc3cccc(NCc4c[nH]c5ncccc45)c3C2=O)cc1 [Example 32, 2-(4-tert-butyl-phenyl)-7-[(1H-pyrrolo [2,3-b]pyridin-3-ylmethyl)-amino]-2,3-dihydro-isoindol-1-one] | < 500 |
| CC1(C)CNCc2cc(N3Cc4cccc(NCc5c[nH]c6ncccc56)c4C3=O)ccc21 [Example 35] | < 500 |
| CC(C)(C)c1cc(N2Cc3cccc(NCc4ccncc4)c3C2=O)[nH]n1 [Example 46, 2-(5-tert-butyl-2H-pyrazol-3-yl)-7-[(pyridin-4-ylmethyl)-amino]-2,3-dihydro-isoindol-1-one] | < 500 |
| CC1(C)CNCc2cc(N3Cc4cccc(NCc5ccc6ncccc6c5)c4C3=O)ccc21 [Example 64, 2-(4,4-Dimethyl-1,2,3,4-tetrahydro-isoquinolin-7-yl)-7-[(quinolin-6-ylmethyl)-amino]-2,3-dihydro-isoindol-1-one] | < 500 |
| CC(C)(C)c1ccc(N2Cc3ccnc(NCc4ccncc4)c3C2=O)cc1 [Example 80, 2-(4-tert-butyl-phenyl)-4-[(pyridin-4-ylmethyl)-amino]-1,2-dihydro-pyrrolo[3,4-c]pyridin-3-one] | < 500 |
| CC(C)(C)c1ccc(N2Cc3ccnc(NCc4ccnc(N)c4)c3C2=O)cc1 [Example 83, 4-[(2-amino-pyridin-4-ylmethyl)-amino]-2-(4-tert-butyl-phenyl)-1,2-dihydro-pyrrolo[3,4-c]pyridin-3-one] | < 500 |
